# Results published in ChEMBL document CHEMBL5154913, “Phenyl Bis-Sulfonamide Keap1-Nrf2 Protein-Protein Interaction Inhibitors with an Alternative Binding Mode” (J Med Chem, 2022).
# Key:
# [1] = Aqueous solubility of the compound at pH 7.4; assay type: physicochemical; conditions: aqueous medium
# [2] = Permeability of the compound across artificial membrane by IAM binding assay; assay type: ADME
# ARPE-19 = assay: Cytotoxicity against human ARPE-19 cells assessed as reduction in cell viability at 1 uM incubated for 96 hrs by MTT assay relative to control; assay type: toxicity, cell-based; conditions: arpe-19, 96 h
smiles,measurement,setting,value
COc1ccc(S(=O)(=O)N(CC(=O)O)c2ccc(N(CC(=O)O)S(=O)(=O)c3ccc(OC)cc3)c(OCc3ccccc3)c2)cc1,solubility,[1],348 µg/mL
COc1ccc(S(=O)(=O)N(CC(=O)O)c2ccc(N(CC(=O)O)S(=O)(=O)c3ccc(OC)cc3)c(OCc3cccc(OC)c3)c2)cc1,log K,[2],1.83
COC(=O)[C@]12CCC(C)(C)C[C@H]1[C@H]1C(=O)C=C3[C@@]4(C)C=C(C#N)C(=O)C(C)(C)[C@@H]4CC[C@@]3(C)[C@]1(C)CC2 [BARDOXOLONE METHYL],Activity,ARPE-19,Toxic
